Laboratory results taken from paper PMC11249626, “Fluorophore-Labeled Pyrrolones Targeting the Intracellular Allosteric Binding Site of the Chemokine Receptor CCR1” (ACS Pharmacology & Translational Science, 2024).

Molecular target: T1, CCR1 (Homo sapiens, UniProt P32246)
T1 sequence (P32246 1-355): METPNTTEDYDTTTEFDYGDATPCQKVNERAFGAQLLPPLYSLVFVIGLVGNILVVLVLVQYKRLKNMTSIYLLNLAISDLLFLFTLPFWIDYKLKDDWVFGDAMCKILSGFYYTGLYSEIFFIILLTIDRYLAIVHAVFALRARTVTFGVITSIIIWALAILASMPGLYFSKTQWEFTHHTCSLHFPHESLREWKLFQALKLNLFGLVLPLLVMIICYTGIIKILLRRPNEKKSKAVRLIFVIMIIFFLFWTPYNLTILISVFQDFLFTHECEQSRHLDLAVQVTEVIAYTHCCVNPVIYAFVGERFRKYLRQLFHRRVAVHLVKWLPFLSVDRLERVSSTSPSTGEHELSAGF
Assay: Membrane-based NanoBRET saturation binding assay, CCR1_Nluc membranes from HEK293T cells
Parameters: Promega pNLF1-C (Nluc) #CCR010TN00; host or cells: HEK293T, transient (PEI)
Details: saturation binding of fluorescent ligand, read-out: KD (equilibrium, KD(eq.))
Text: To evaluate the CCR1 affinity of previously reported (8–9) and new fluorescently labeled pyrrolones (11–12), we developed a NanoBRET-based binding assay (Figures 4A–H and S2A–J). To this end, we used a previously reported CCR1 construct (hereafter referred to as CCR1_Nluc) with a small and bright luciferase variant (nanoluciferase,[52] Nluc), fused to the intracellular C-terminus of CCR1 (Figures 4A and S2A).[47] […] This was expected, given the very low CCR2/CCR1 selectivity of the parental ligands 4 and 5 (Figure 1).[33] For further studies, we selected 12 due to its highest CCR1 affinity.
Cell culture: HEK293T cells were cultured as previously described.8 In brief, HEK293T cells (gift from Chair of Physiology, Prof. Dr. Alzheimer, FAU Erlangen-Nürnberg) were grown on 10 cm culture dishes at 37 °C and 5% CO2. As growth medium, Dulbecco's Modified Eagle Medium (DMEM)/F12 (Invitrogen) supplemented with 10% fetal bovine serum (FBS, Gibco™ Fetal Bovine Serum, qualified, Brazil), L-glutamine (final concentration: 2 mM; from Gibco™ L-glutamine 200 mM, 100X), penicillin (final concentration: 100 units/mL), and streptomycin (final concentration: 100 µg/mL; from Gibco™ Penicillin-Streptomycin 10,000 U/mL) was used. Cells were split every three to four days and regularly confirmed to be free of mycoplasma contamination using the luminescence-based MycoAlert Plus Kit (Lonza).
Transient transfection using polyethylenimine: For transfection, we used a previously published procedure.8 In brief, HEK293T cells were plated onto culture dishes (Ø 10 cm or Ø 15 cm) and grown to a confluence of approximately 50% at 37 °C and 5% CO2. The growth medium was renewed one-hour before transfection. The transfection mix was prepared, as described in the following. Solution A (0.4-2.2% total DNA (1-5.5 µg) in Gibco™ phosphate buffered saline, pH 7.4) and solution B (3% PEI (linear, 25 kDa, from Polysciences) solution prepared from a PEI stock solution (0.4 µg/µL) in PBS without MgCl2 and CaCl2) were mixed one to one, the resulting mixture was vortexed for 5 s and incubated for 30 min at room temperature. The pre-incubated transfection mix was added dropwise to the cells and cell cultivation was continued […]
Membrane preparation: Membranes were prepared as previously reported.8 In brief, membranes from HEK293T cells transiently expressing the respective GPCR were prepared as follows. The medium of the transfected cells was refreshed after 24 h before cells were harvested 48 h post-transfection. […]
Finally, the protein concentration was determined using the Lowry method.9 cDNA constructs: The CCR1-Nluc fusion construct (CCR1_Nluc) in pcDNA3.1 was generated as previously reported1 using the Gibson Assembly10 (New England Biolabs) method. […]

| Kd | Structure (SMILES) |
| --- | --- |
| 3170 ± 370 nM | CN(C)c1ccc2c(-c3cc(C(=O)NCCOCCOCc4cn(CCCC(=O)C5=C(O)C(=O)N(c6ccc(Cl)cc6F)C5C5CCCCC5)nn4)ccc3C(=O)[O-])c3ccc(=[N+](C)C)cc-3oc2c1 (centres unmarked) [compound 11] |
| 1900 ± 180 nM | CN(C)c1ccc2c(-c3cc(C(=O)NCCOCCOCc4cn(CCCC(=O)C5=C(O)C(=O)N(c6ccc(Br)cc6F)C5C5CCCCC5)nn4)ccc3C(=O)[O-])c3ccc(=[N+](C)C)cc-3oc2c1 (centres unmarked) [compound 12] |
